For test [1], the target named is T1, H2 -receptors (Rattus norvegicus, UniProt P25102).
T1 construct: uterine horns removed therefrom and suspended at ambient temperatures in isolated organ baths; from tissue; host or cells: isolated uterine horns of estrone-treated female albino rats
In words: H2-receptor blocking activity, histamine relaxation of KCl-contracted isolated rat uterine horns. It is filed as cell-based. Particulars: for Kb: antagonist 10^-5 molar for 30 minutes, rat uterine strips, histamine dose-response shift, read-out: pA2 (-log KB) (converted). The procedure:
The following assay for H2 -receptor blocking activity was employed. Female albino rats were treated with estrone 24 hours prior to the initiation of the experiment. The rats were sacrificed and the uterine horns removed therefrom and suspended at ambient temperatures in isolated organ baths containing De Jalon's solution. After equilibration, the uterine strips are exposed to 50 millimole aqueous potassium chloride, which produces a sustained contraction. When the uterus is so contracted, histamine produces a dose-dependent H2 -receptor-mediated relaxation. A control dose-response curve to histamine is constructed on each tissue. Following thorough washout of the histamine after obtaining the control dose-response curve, each antagonist (the compounds of this invention) is added for 30 minutes at a concentration of 10^-5 molar. The uterine strips are then contracted with aqueous potassium chloride in the presence of the antagonist and a second dose-response curve to histamine obtained. In the presence of a competitive antagonist, the dose-response curve to histamine is shifted in parallel to the right with no depression of the maximum relative to the control curve. The dose ratio (DR) is calculated for each concentration of antagonist by dividing the ED50 of histamine in the presence of the competitive antagonist by the control ED50 for histamine. The dissociation constant (KB ) of the antagonist is calculated from the dose-ratios by the following equation: […]
Cimetidine is included as an internal standard.

Test [2] concerns acid secretion. In words: in vivo antisecretory action on histamine-stimulated acid secretion in gastric fistula dogs. The procedure: An in vivo assay for antisecretory action of drugs on acid secretion utilizes gastric fistula dogs with vagally innervated gastric fistula and vagally denervated Heidenhain pouch. In this procedure, a steady-state gastric secretion is produced by the iv infusion of histamine. The antisecretory drugs under test are given either intravenously by infusion over a 30 minute period or orally 75 min. prior to collection of gastric secretion from the fistula.

Test [3] has as its system H2 receptor. Particulars: prior art; cited from earlier work.
In test [4] the test system is H2 -receptor. The settings on record: said in U.S. Pat. No. 4,203,909; cited from earlier work.

T1 sequence (P25102 whole entry): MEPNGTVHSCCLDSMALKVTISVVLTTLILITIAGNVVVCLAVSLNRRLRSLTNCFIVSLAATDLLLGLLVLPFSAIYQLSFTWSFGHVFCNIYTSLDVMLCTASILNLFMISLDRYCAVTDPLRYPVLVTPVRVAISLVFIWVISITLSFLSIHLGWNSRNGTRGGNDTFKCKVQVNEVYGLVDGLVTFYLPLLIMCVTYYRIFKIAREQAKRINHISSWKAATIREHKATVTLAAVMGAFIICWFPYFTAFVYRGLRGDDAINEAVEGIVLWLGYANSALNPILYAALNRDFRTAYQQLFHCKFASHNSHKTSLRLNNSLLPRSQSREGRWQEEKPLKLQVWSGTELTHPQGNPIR

Regarding `C#CCNC(=NC#N)NCCSCc1csc(CN(C)C)n1` [N-2-propynyl-N'-2-(2-dimethylaminomethyl-4-thiazolylmethylthio)ethyl-N"-cyanoguanidine], the Kb in test [1] was 1000 nM.
With `C#CCNC(=C[N+](=O)[O-])NCCSCc1csc(CN(C)C)n1` [N-(2-propynyl)-N'-2-(2-dimethylaminomethyl-4-thiazolylmethylthio)ethyl 2-nitro-1,1-ethenediamine], the Kb in test [1] was 186 nM. The “times higher affinity for the H2 -receptors than cimetidine” value in test [1] (relative to cimetidine internal standard) is “approximately 3.63 times”. The molecule further showed an ED50 in test [2] (Canis lupus familiaris, 0.5 h, iv infusion over 30 minutes, histamine-stimulated gastric secretion) of 0.068 µmol/kg. Further, the “times smaller ED50 (iv) than that found for cimetidine” value in test [2] (iv, relative to cimetidine) is listed as “over 7 times”.
Consider `CNC(=C[N+](=O)[O-])NCCSCc1ccc(CN(C)C)o1` [ranitidine], for which, in test [3], the “H2 receptor antagonist activity compared with cimetidine” value is “greater H2 receptor antagonist activity than cimetidine”.
As for `C#CCNC(=C[N+](=O)[O-])NCCSCc1ccc(CN(C)C)o1` [1-nitro-2-(2-propynylamino)-2-(2-[(5-dimethylaminomethyl-2-furyl)methylthio]ethylamino)ethylene], the “times the activity of cimetidine” value in test [4] is on record as 7.45 times.

By Kb is commonly meant the equilibrium dissociation constant of an antagonist, usually derived from a functional assay. What is called ED50 is the midpoint of the dose-response relation.

The values are drawn from patent US4474794A, “N-Thiazolylmethylthioalkyl-N^1 -alkenyl (or alkynyl)guanidines and related compounds” (Eli Lilly and Company, priority 1982, dated 1984).
